Experimental findings from US5571825A, “Method of selectively inhibiting prostaglandin G/H synthase-2” (Warner-Lambert Company, priority 1995, dated 1996) are described below.

By inhibition is commonly meant how much of the control response was suppressed.

“And” between values parts separate entries of the source, which are not always exact repeats. Equal values may be shown once. Read-outs that look alike come from different tables or passages of the source.

Assay [1] deals with T1, prostaglandin G/H synthase-1 (Ovis aries, UniProt P05979).
T1 construct: purified from ram seminal vesicles; from tissue; host or cells: ram seminal vesicles
T1 sequence (P05979 25-600): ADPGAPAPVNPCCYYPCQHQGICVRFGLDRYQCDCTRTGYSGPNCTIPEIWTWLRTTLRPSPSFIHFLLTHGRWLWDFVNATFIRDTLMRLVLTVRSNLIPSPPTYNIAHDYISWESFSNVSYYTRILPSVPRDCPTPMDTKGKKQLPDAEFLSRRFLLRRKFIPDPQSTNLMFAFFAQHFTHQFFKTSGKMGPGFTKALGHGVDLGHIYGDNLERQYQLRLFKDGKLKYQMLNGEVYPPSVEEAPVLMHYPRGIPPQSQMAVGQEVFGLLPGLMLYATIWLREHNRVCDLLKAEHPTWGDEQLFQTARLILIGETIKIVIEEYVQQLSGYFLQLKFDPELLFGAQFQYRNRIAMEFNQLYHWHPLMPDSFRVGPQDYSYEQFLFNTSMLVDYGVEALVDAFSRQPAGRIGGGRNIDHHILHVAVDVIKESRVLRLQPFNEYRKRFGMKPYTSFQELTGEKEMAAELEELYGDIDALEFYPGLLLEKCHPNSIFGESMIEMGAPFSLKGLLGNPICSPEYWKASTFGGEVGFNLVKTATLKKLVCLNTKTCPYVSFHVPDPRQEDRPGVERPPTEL
Briefly: Inhibition of prostaglandin G/H synthase-1 (conversion of [14C]arachidonic acid to products). It counts as biochemical. Conditions: enzyme purified from ram seminal vesicles, 15 min preincubation, pH 7.4, room temperature. The procedure:
(§1) The compounds of the present invention were evaluated as selective inhibitors of prostaglandin G/H synthase-2 by determining the effect of the compounds on the conversion of [^14 C]arachidonic acid to products by prostaglandin G/H synthase-2 purified from sheep placenta. This enzyme shares immunoreactivity and sequence homology with human prostaglandin G/H synthase-2. The effects of the compounds on prostaglandin G/H synthase-1 purified from ram seminal vesicles is used for the evaluation of inhibitory selectivity.
(§2) Each compound was preincubated for 15 minutes at room temperature in 50 mM sodium phosphate buffer at pH 7.4 containing 3.33 mM reduced glutathione, 2.67 mM epinephrine and 6.6% dimethylsulfoxide with sufficient enzyme to cause approximately 30% conversion of substrate to products after 15 minutes incubation in the absence of inhibitory compounds. Reactions with 24 μM arachidonic acid are initiated by the addition of a one third volume of 50 mM sodium phosphate buffer, pH 7.4, containing 3.33 mM reduced glutathione, 2.67 mM epinephrineβ and [^14 C] arachidonic acid.
(§3) Reactions were terminated after 15 minutes incubation at room temperature by the addition of 1.875 volumes of methanol:acetic acid (100:0.1) containing 0.5 mg/ml triphenylphosphine. The reaction products were separated from the unconverted substrate by high performance liquid chromatography and quantified by on-line radiometric detection. Compound effects were computed as percent inhibition of blank-adjusted mean product formation in uninhibited incubations.

For assay [2], the target named is T2, prostaglandin G/H synthase-2 (Ovis aries, UniProt P79208).
T2 construct: purified from sheep placenta; from tissue; host or cells: sheep placenta
As to the kind of experiment: Inhibition of prostaglandin G/H synthase-2 (conversion of [14C]arachidonic acid to products). The conditions noted are these: enzyme purified from sheep placenta, 15 min preincubation, pH 7.4, room temperature. It counts as biochemical. The procedure:
as §1, §2, §3

[3] abbreviates: pH 7.4, read-out: % Inhibition of PGHS-1 at 10 μM, 10 μM.
Setting [4] is: pH 7.4, read-out: % Inhibition of PGHS-1 at 100 μM, 100 μM.
Setting [5] is: pH 7.4, read-out: % Inhibition of PGHS-2 at 10 μM, 10 μM.
The mark [6] stands for this setting: pH 7.4, read-out: % Inhibition of PGHS-2 at 100 μM, 100 μM.
[7] abbreviates: pH 7.4, 10 μM, read-out: % Inhibition of PGHS-1 at 10 μM.
The mark [8] stands for this setting: pH 7.4, 100 μM, read-out: % Inhibition of PGHS-1 at 100 μM.
Setting [9] is: pH 7.4, 10 μM, read-out: % Inhibition of PGHS-2 at 10 μM.
The mark [10] stands for this setting: pH 7.4, 100 μM, read-out: % Inhibition of PGHS-2 at 100 μM.

T2 sequence (P79208 17-603): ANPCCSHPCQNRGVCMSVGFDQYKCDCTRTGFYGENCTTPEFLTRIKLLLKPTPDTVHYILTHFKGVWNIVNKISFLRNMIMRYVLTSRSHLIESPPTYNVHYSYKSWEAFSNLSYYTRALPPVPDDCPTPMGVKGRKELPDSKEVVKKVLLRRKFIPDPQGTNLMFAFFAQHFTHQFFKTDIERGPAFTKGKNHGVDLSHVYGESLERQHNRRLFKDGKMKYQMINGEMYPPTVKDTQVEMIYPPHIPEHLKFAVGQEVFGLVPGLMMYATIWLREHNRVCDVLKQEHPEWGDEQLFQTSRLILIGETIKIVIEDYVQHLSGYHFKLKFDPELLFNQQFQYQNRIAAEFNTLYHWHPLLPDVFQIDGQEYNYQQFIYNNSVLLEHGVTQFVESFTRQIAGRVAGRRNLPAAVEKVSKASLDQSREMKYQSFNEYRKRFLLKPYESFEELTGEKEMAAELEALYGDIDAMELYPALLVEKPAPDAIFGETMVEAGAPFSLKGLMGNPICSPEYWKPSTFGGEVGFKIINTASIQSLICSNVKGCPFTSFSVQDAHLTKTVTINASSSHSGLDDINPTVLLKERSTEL

Take `COC(=O)CSC(c1ccccc1)c1ccccc1` [Example 1, Methyl [(diphenylmethyl)thio]acetate]: the inhibition at 10 µM is 20% in assay [1] (setting [3]) and 56% in assay [2] (setting [5]). Further, the inhibition at 100 µM was 42% in assay [1] (setting [4]) and 84% in assay [2] (setting [6]).
For `COC(=O)CSC(c1ccc(OC)cc1)c1ccc(OC)cc1` [Example 2, Methyl [[bis-(4-methoxyphenyl)methyl]thio]acetate], in assay [1], the “% Inhibition of PGHS-1 at 100 μM” value turned out to be 13%. For the same compound, the values for the inhibition at 10 µM in assay [1] (setting [3]) and in assay [2] (setting [5]) were below 10% and 23%, respectively. Also, the results for the inhibition at 100 µM in assay [1] (setting [4]) and in assay [2] (setting [6]) were below 10% and 79%, respectively. Further, the “% Inhibition of PGHS-2 at 10 μM” value in assay [2] is reported as 34%. Further, the “% Inhibition of PGHS-2 at 100 μM” value in assay [2] is on record as 74%.
Turning to `COC(=O)CSC(c1ccc(Cl)cc1)c1ccc(Cl)cc1` [Example 3, Methyl [[bis-(4-chlorophenyl)methyl]thio]acetate], the “% Inhibition of PGHS-2 at 100 μM” value in assay [2] turned out to be 46%. For the same compound, the inhibition at 100 µM in assay [2] (setting [6]) turned out to be 45%.
`COC(=O)CSC(c1ccc(N(C)C)cc1)c1ccc(N(C)C)cc1` [Example 4, Methyl [[bis-(4-dimethylaminophenyl)methyl]thio]acetate]: the “% Inhibition of PGHS-1 at 10 μM” value in assay [1] (10 μM) was found to be 31%. Also, the “% Inhibition of PGHS-1 at 100 μM” value in assay [1] is 72%. Moreover, the inhibition at 10 µM in assay [1] (setting [7]) turned out to be 42%; in assay [2] (setting [9]), 86%. In addition, the figures for the inhibition at 100 µM in assay [1] (setting [8]) and in assay [2] (setting [10]) were 68% and 96%, respectively. In assay [2], the “% Inhibition of PGHS-2 at 10 μM” value amounted to 92%. The “% Inhibition of PGHS-2 at 100 μM” value in assay [2] is 99% and 92%.
On to `COC(=O)CSC(c1ccc(F)cc1)c1ccc(F)cc1` [Example 5, Methyl [[bis-(4-fluorophenyl)methyl]thio]acetate], for which the inhibition at 10 µM in assay [1] (setting [3]) was below 10%. Moreover, the inhibition at 100 µM in assay [1] (setting [4]) is below 10%; in assay [2] (setting [6]), 52%. Besides, the “% Inhibition of PGHS-2 at 100 μM” value in assay [2] was found to be 40%.
For `COC(=O)CSC(c1ccc(C)cc1)c1ccc(C)cc1` [Example 6, Methyl [[bis-(4-methylphenyl)methyl]thio]acetate], the results for the inhibition at 10 µM in assay [1] (setting [3]) and in assay [2] (setting [5]) were below 10% and 11%, respectively. Further, the inhibition at 100 µM in assay [1] (setting [4]) is below 10%; in assay [2] (setting [6]) it was 52%.
Take `COC(=O)CSC(c1ccccc1Cl)c1ccccc1Cl` [Example 7, Methyl [[bis-(2-chlorophenyl)methyl]thio]acetate]: the inhibition at 10 µM in assay [1] (setting [3]) and in assay [2] (setting [5]) was below 10% each time. The inhibition at 100 µM is below 10% in assay [1] (setting [4]) and 37% in assay [2] (setting [6]).
For the compound `COC(=O)CSC(c1ccccc1OC)c1ccccc1OC` [Example 8, Methyl [[bis-(2-methoxyphenyl)methyl]thio]acetate], the inhibition at 10 µM in assay [2] (setting [5]) amounted to 14%. Moreover, the inhibition at 100 µM in assay [2] (setting [6]) came to 77%.
On to `COC(=O)CSC(c1cccs1)c1cccs1` [Example 9, Methyl [[bis-(2-thienyl)methyl]thio]acetate], for which the inhibition at 10 µM in assay [1] (setting [7]) and in assay [2] (setting [9]) was below 10% throughout. Also, the inhibition at 100 µM in assay [1] (setting [8]) was below 10%; in assay [2] (setting [10]) it was 33%.
Turning to `COC(=O)CSC1c2ccccc2-c2ccccc21` [Example 10, Methyl (9-fluorenylthio)acetate], the inhibition at 10 µM in assay [1] (setting [7]) was below 10%; in assay [2] (setting [9]), 30%. Further, the inhibition at 100 µM in assay [1] (setting [8]) came to 18%; in assay [2] (setting [10]) it was 77%.
The corresponding values for `COC(=O)CSC(c1ccccc1)(c1ccccc1)c1ccccc1` [Example 11, Methyl [(triphenylmethyl)thio]acetate] are below 10%, 29%, 10% and 62%.
As to `COC(=O)CSC(c1ccc(OC)cc1)(c1ccc(OC)cc1)c1ccc(OC)cc1` [Example 12, Methyl [[(tris-4-methoxyphenyl)methyl]thio]acetate], the “% Inhibition of PGHS-1 at 100 μM” value in assay [1] is given as 17%. For the same compound, the inhibition at 100 µM in assay [1] (setting [8]) is 32%; in assay [2] (setting [10]), 80%. The “% Inhibition of PGHS-2 at 10 μM” value in assay [2] was 83%. In addition, the “% Inhibition of PGHS-2 at 100 μM” value in assay [2] amounted to 86%. The inhibition at 10 µM in assay [2] (setting [9]) was 79%.
With `COC(=O)CSC(c1ccccc1)(c1ccc(OC)cc1)c1ccc(OC)cc1` [Example 13, Methyl [[(bis-4-methoxyphenyl)phenylmethyl]thio]acetate], the values for the inhibition at 10 µM in assay [1] (setting [7]) and in assay [2] (setting [9]) were below 10% and 41%, respectively. For the same compound, the figures for the inhibition at 100 µM in assay [1] (setting [8]) and in assay [2] (setting [10]) were below 10% and 49%, respectively.
With `COC(=O)CSC1(c2ccccc2)c2ccccc2-c2ccccc21` [Example 14, Methyl (9-phenylfluoren-9-yl-thio)acetate], the inhibition at 10 µM is below 10% in assay [1] (setting [7]) and 14% in assay [2] (setting [9]). Also, the inhibition at 100 µM in assay [1] (setting [8]) was below 10%; in assay [2] (setting [10]), 50%.
In the case of `COC(=O)CSC1c2ccccc2C=Cc2ccccc21` [Example 15, Methyl (5H-dibenzo[a,d]cyclohepten-5-yl-thio)acetate], the inhibition at 10 µM in assay [1] (setting [7]) and in assay [2] (setting [9]) was below 10% in each case. In addition, the inhibition at 100 µM in assay [1] (setting [8]) was below 10%; in assay [2] (setting [10]), 31%.
For the compound `COC(=O)CSC1c2ccccc2Oc2ccccc21` [Example 16, Methyl (xanthen-9-yl-thio)acetate], the inhibition at 10 µM in assay [1] (setting [7]) is below 10%. Moreover, in assay [2], the “% Inhibition of PGHS-2 at 10 μM” value is 50% and the “% Inhibition of PGHS-2 at 100 μM” value was 85%. Besides, the inhibition at 10 µM in assay [2] (setting [9]) was 41%. The inhibition at 100 µM in assay [2] (setting [10]) came out at 78%.
`COC(=O)CSC1c2ccccc2CCc2ccccc21` [Example 17, Methyl (10, 11-dihydro-5H-dibenzo[a,d]cyclohepten-5-yl-thio)acetate]: the inhibition at 10 µM in assay [1] (setting [7]) was below 10%; in assay [2] (setting [9]), 8%. For the same compound, the inhibition at 100 µM in assay [1] (setting [8]) was below 10%; in assay [2] (setting [10]) it was 17%.
